{
  "source": "patent US9884040B2",
  "about": "“Desethylamiodarone for use in cancer treatment” (PÉCSI TUDOMÁNYEGYETEM, priority 2015, dated 2018)",
  "origin": "cited, not measured here",
  "details": "in vivo; cited from earlier work",
  "data": [
    {"smiles": "CCCCc1oc2ccccc2c1C(=O)c1cc(I)c(OCCN(CC)CC)c(I)c1", "note": "[amiodarone]", "values": [
      {"measurement": "Recommended therapeutic range", "value": "< 5.7", "unit": "µM"}
    ]}
  ]
}
